# Results: ChEMBL document CHEMBL5108004, “An auristatin-based peptide-drug conjugate targeting Kita-Kyushu lung cancer antigen 1 for precision chemoradiotherapy in gastric cancer” (Eur J Med Chem, 2022)
# Calls of active or inactive are those of the source. No cut-off for these calls is given here. Where a SMILES comes first, the peptide text is derived from it. [ ]: non-standard residue; d: D form. The star is where a group is joined. Dolaproine = CO[C@@H]([C@@H]1CCCN1)[C@@H](C)C(=O)O; Dil = CC[C@H](C)[C@H](NC)[C@@H](CC(=O)O)OC; X1 = C[C@@H](N*)[C@@H](O)c1ccccc1; NMeV = CN[C@H](C(=O)O)C(C)C
# Assays:
# NUGC-4 [1] = assay: Cytotoxicity against KK-LC-1-positive human NUGC-4 cells incubated for 72 hrs by CCK-8 assay; type: functional, cell-based; conditions: NUGC-4, 72 h
# MKN-45 [2] = assay: Cytotoxicity against KK-LC-1-positive human MKN-45 cells incubated for 72 hrs by CCK-8 assay; type: functional, cell-based; conditions: MKN-45, 72 h
# HGC-27 = assay: Cytotoxicity against KK-LC-1-negative human HGC-27 cells incubated for 72 hrs by CCK-8 assay; type: functional, cell-based; conditions: HGC-27, 72 h
# NUGC-4 [3] = assay: Induction of mitotic arrest in KK-LC-1-positive human NUGC-4 cells xenografted in nude mouse assessed as number of pHH3-positive nuclei in tumor at 4 nmol, iv administered as single dose and measured after 24 hrs by pHH3 immunohistochemical staining method relative to control; type: functional
# MKN-45 [4] = assay: Antitumor activity against KK-LC-1-positive human MKN-45 cells xenografted in male BALB/c nude mouse assessed as reduction in tumor growth; type: functional
# MKN-45 [5] = assay: Antitumor activity against KK-LC-1-positive human MKN-45 cells xenografted in male BALB/c nude mouse assessed as tumor volume; type: functional
smiles,measurement,setting,value
CC[C@H](C)[C@@H]([C@@H](CC(=O)N1CCC[C@H]1[C@H](OC)[C@@H](C)C(=O)N[C@H](C)[C@@H](O)c1ccccc1)OC)N(C)C(=O)[C@@H](NC(=O)[C@@H](NC)C(C)C)C(C)C (H-[NMeV]V[Dil][Dolaproine]-X1),IC50,NUGC-4 [1],11 nM
same,IC50,MKN-45 [2],10.7 nM
same,IC50,HGC-27,7.18 nM
same,Activity,NUGC-4 [3],28.75
same,Activity,MKN-45 [4],Active
same,Activity,MKN-45 [5],602.1 mm3
